Results on twelve molecules are retold here after patent publication US7250389B1, “Antifungal compound and process for producing the same” (Meiji Seika Kaisha, Ltd., priority 1998, dated 2007).

Series [1] has as its system rice blast fungi (Pyricularia oryzae). Format: in vivo.
For series [2], the system named is cucumber downy mildew (pathogenic fungi: Peseudoperonocpora cubensis). The series can be described thus: Test on effect of protecting cucumber against downy mildew. In kind it is in vivo. The settings on record: 200 ppm spray; cucumber seedlings; seven days after inoculation. Here is the method: Cucumber seedlings (variety: Suyo) of first leaf development stage raised in each of plastic pots containing compost were provided. […] The agent was air dried. Thereafter, a conidial suspension, which had been previously prepared by scraping lesion portions on the undersurface of cucumber suffering from cucumber downy mildew (pathogenic fungi: […] cubensis), was evenly inoculated by spraying. The pots were then kept under moist chamber conditions at 20° C. for 24 hr to perform infection. Thereafter, they were transferred to an environment control room kept at 18° C. at night and at 22° C. in the daytime to induce the disease.

For series [3], the system named is cucumber anthracnose fungi (Colletotricum lagenarium). In kind it is in vivo. Conditions: 200 ppm spray; cucumber seedlings; seven days after inoculation.
For series [4], the system named is blast (rice seedlings). Kind of series: Photostability test (effect of protecting rice seedlings against blast, outdoors). Format: in vivo. Conditions: 200 ppm, 100 mL per m^2; outdoor rice seedlings; lesion area 19 days after application. From the text:
Rice seedlings of three-leaf stage (variety: Koshihikari) raised outdoors in an upland field bed (1 m×1 m) for rice seedlings were covered with a vinyl tunnel, only at night, with ears of rice suffering from blast being suspended (height 40 cm) to infect rice seedlings with blast. After the incipient infection was confirmed, agent solutions having an agent concentration of 200 ppm prepared by varying the agent concentration by the method as described in Test Example 2 each were applied in an amount of 100 mL per m^2 by means of a sprayer. For one week after the application of the agent, the rice seedlings were covered with the vinyl tunnel at night to promote the infection. 19 days after the application of the agent, the lesion area of the leaf was measured, and the protective value was calculated by the following equation.
Protective value=(1−average lesion area of treated plot)/lesion area of untreated plot)×100

Series [5] in a line: Photostability test (percentage residue as determined by HPLC). Conditions: thin film. Format: physicochemical. The method, then:
In consideration of use in agricultural chemicals, the following test was carried out to obtain data on photostability against exposure to sunlight. Date and Time of Test: First: 5 hr from 12:00 to 17:00 on May 26, 1997 Second: 6 hr from 10:00 to 16:00 on May 28, 1997 Place: For both tests, Odawara-shi, Kanagawa Weather: For both tests, fine […] Acetone was shortly evaporated. As a result, each sample was brought into a white thin film. The films thus obtained were exposed to sunlight. After the completion of exposure to sunlight, the residual amount of UK-2A and the residual amount of the compound of Example 18 were quantitatively determined by HPLC (column: YMC-PACKODS-AS-56.0×150 mm (A-312)), mobile phase: acetonitrile-water=70 : 30 (v/v), detection wavelength: 254 nm).

Series [6] concerns cucumber anthracnose fungi (Colletotricum lagenarium). Kind of series: Confirmation test on persistence of the effect of protecting cucumber against anthracnose. In kind it is in vivo. The settings on record: for Protective value, Plot 2: inoculation on the day subsequent to holding under fluorescent lamp; for Protective value, Plot 3: inoculation on the day subsequent to holding under sunlight; for Protective value, Plot 1: inoculation on the same day as application. The source says:
Cucumber seedlings (variety: Suyo) of first leaf development stage raised in each of plastic pots containing compost were provided. […] The agent was air dried. On the same day or 24 hr after the air drying, a conidial suspension of cucumber anthracnose fungi (Colletotricum lagenarium), which had been previously cultured in a potato soup agar medium, was evenly inoculated by spraying. […] Experimental Plots: Plot 1: Plot subjected to inoculation on the same day as application: Inoculation was carried out on the same day as the air drying, and the pots were allowed to stand under moist chamber conditions at 26° C. for 24 hr and then allowed to stand for 7 days in an environment control room kept at 18° C. at night and at 25° C. in the daytime. Plot 2: Plot subjected to inoculation on the day subsequent to holding under fluorescent lamp: After the air drying, the pots were placed in an environment control room under an indoor fluorescent lamp (the control room being kept at 18° C. at night and at 25° C. in the daytime with the fluorescent lamp being turned on for 8 hr in the daytime). 24 hr after the application of the agent, inoculation was carried out. Thereafter, the pots were allowed to stand under moist chamber conditions at 26° C. for 24 hr and then allowed to stand for 7 days in an environment control room kept at 18° C. at night and at 25° C. in the daytime. Plot 3: Plot subjected to inoculation on the day subsequent to holding under sunlight: After the air drying, the pots were placed outdoors under sunlight in the daytime (8 hr) and then allowed to stand in an environment control room kept at 18° C. 24 hr after the application of the agent, inoculation was carried out. Thereafter, the pots were allowed to stand under moist chamber conditions at 26° C. for 24 hr and then allowed to stand for 7 days in an environment control room kept at […] at night and at 25° C. in the daytime.

Read-outs that look alike come from different tables or passages of the source.

Turning to `CC(C)C(=O)O[C@H]1[C@H](C)OC(=O)[C@@H](NC(=O)c2cccnc2O)COC(=O)[C@@H]1Cc1ccccc1` [Ex. 4, (2R,3R,4S,7S)-7-(2-Hydroxynicotinylamino)-2-benzyl-5,9-dioxa-3-isobutyryloxy-4-methyl-1,6-cyclononanedione], the values for the Protective value in series [1] (in vivo) and in series [2] were 86 and 78, respectively.

Regarding `CC(C)C(=O)O[C@H]1[C@H](C)OC(=O)[C@@H](NC(=O)c2nc3ccccc3nc2O)COC(=O)[C@@H]1Cc1ccccc1` [Ex. 8, (2R,3R,4S,7S)-7-(3-Hydroxy-2-quinoxalinecarboxylamino)-2-benzyl-5,9-dioxa-3-isobutyryloxy-4-methyl-1,6-cyclononanedione], the Protective value in series [1] (in vivo) and in series [3] was 100 throughout.

For `CC(C)C(=O)O[C@H]1[C@H](C)OC(=O)[C@@H](NC(=O)c2cccc(N)c2O)COC(=O)[C@@H]1Cc1ccccc1` [Ex. 41, (2R,3R,4S,7S)-7-(3-Aminosalicyl)amino-2-benzyl-5,9-dioxa-3-isobutyryloxy-4-methyl-1,6-cyclononanedione], the Protective value in series [1] (in vivo) was 86; in series [2], 88; in series [3], 100.

Turning to `CC(C)C(=O)O[C@H]1[C@H](C)OC(=O)[C@@H](NC(=O)c2cccc(O)n2)COC(=O)[C@@H]1Cc1ccccc1` [Ex. 5, (2R,3R,4S,7S)-7-(6-Hydroxypicolinylamino)-2-benzyl-5,9-dioxa-3-isobutyryloxy-4-methyl-1,6-cyclononanedione], the Protective value turned out to be 90 in series [1] (in vivo) and 100 in series [2].

In turn, `CC(C)C(=O)O[C@H]1[C@H](C)OC(=O)[C@@H](NC(=O)c2cc(Cl)ccc2O)COC(=O)[C@@H]1Cc1ccccc1` [Ex. 46, (2R,3R,4S,7S)-7-(5-Chlorosalicyl)amino-2-benzyl-5,9-dioxa-3-isobutyryloxy-4-methyl-1,6-cyclononanedione] came in with a Protective value in series [3] of 100.

As to `CC(C)C(=O)O[C@H]1[C@H](C)OC(=O)[C@@H](NC(=O)c2cccc([N+](=O)[O-])c2O)COC(=O)[C@@H]1Cc1ccccc1` [Ex. 40, (2R,3R,4S,7S)-7-(3-Nitrosalicyl)amino-2-benzyl-5,9-dioxa-3-isobutyryloxy-4-methyl-1,6-cyclononanedione], in series [2], the Protective value is listed as 100.

`CCCCCCC1C(=O)OC(C)C(NC(=O)c2cccc(NC=O)c2O)C(=O)OC(C)C1OC(=O)CC(C)C` (stereo not drawn) [Antimycin A, reference compound]: the Protective value is 83 in series [1] (100 ppm spray, rice seedlings, lesions counted seven days after inoculation) and 17 in series [3].

In series [4], `COc1ccnc(C(=O)N[C@H]2COC(=O)[C@H](Cc3ccccc3)[C@@H](OC(=O)C(C)C)[C@H](C)OC2=O)c1O` [UK-2A, reference compound] returned a Protective value of 63. Further, in series [5] (First test: 5 hr sunlight), the “Residual amount after exposure to sunlight” value (“Residual amount” for short) is 33%. Also, the “Residual amount” value in series [5] (Second test: 6 hr sunlight) is reported as 64%. In addition, in series [6] (10 ppm), the “Protective value, Plot 2” value is 93; the “Protective value, Plot 3” value came to 27; the “Protective value, Plot 1” value is given as 80. In addition, in series [6] (30 ppm), the “Protective value, Plot 2” value worked out at 100; the “Protective value, Plot 3” value is recorded as 60; the “Protective value, Plot 1” value is 100.

For the molecule `CC(C)C(=O)O[C@H]1[C@H](C)OC(=O)[C@@H](NC(=O)c2cc(NC=O)ccc2O)COC(=O)[C@@H]1Cc1ccccc1` [Ex. 52, (2R,3R,4S,7S)-7-(5-Formylaminosalicyl)amino-2-benzyl-5,9-dioxa-3-isobutyryloxy-4-methyl-1,6-cyclononanedione], the Protective value in series [2] is reported as 100.

In series [1] (in vivo), `COc1cccc(C(=O)N[C@H]2COC(=O)[C@H](Cc3ccccc3)[C@@H](OC(=O)C(C)C)[C@H](C)OC2=O)c1O` [Ex. 38, (2R,3R,4S,7S)-7-(3-Methoxysalicylamino)-2-benzyl-5,9-dioxa-3-isobutyryloxy-4-methyl-1,6-cyclononanedione] gave a Protective value of 83.

Turning to `CC(C)C(=O)O[C@H]1[C@H](C)OC(=O)[C@@H](NC(=O)c2ccccc2O)COC(=O)[C@@H]1Cc1ccccc1` [Ex. 39, (2R,3R,4S,7S)-7-Salicylamino-2-benzyl-5,9-dioxa-3-isobutyryloxy-4-methyl-1,6-cyclononanedione], the Protective value in series [1] (in vivo) amounted to 98.

`COc1ccnc(C(=O)N[C@H]2COC(=O)[C@H](Cc3ccccc3)[C@@H](OC(=O)C(C)C)[C@H](C)OC2=O)c1OC(C)=O` [Ex. 18, (2R,3R,4S,7S)-7-(3-Acetoxy-4-methoxypicolinylamino)-2-benzyl-5,9-dioxa-3-isobutyryloxy-4-methyl-1,6-cyclo-nonanedione] gave a Protective value in series [4] of 95. Also, the “Residual amount” value in series [5] (First test: 5 hr sunlight) was found to be 98%; in series [5] (Second test: 6 hr sunlight) it was 93%. For the same molecule, the “Protective value, Plot 2” value in series [6] (10 ppm), in series [6] (30 ppm) and in series [6] (100 ppm) was 93 each time. For the same molecule, the “Protective value, Plot 3” value in series [6] (10 ppm) is 60; in series [6] (30 ppm) it was 80; in series [6] (100 ppm) it was 93. Besides, the “Protective value, Plot 1” value came out at 67 in series [6] (10 ppm), 67 in series [6] (30 ppm) and 87 in series [6] (100 ppm). The “residual effect under sunlight compared with UK-2A” value in series [6] (plot 3) is “much superior to UK-2A”. Moreover, the “difference in protective value between UK-2A and the compound of Example 18” value in series [6] (plots 1 and 2) is “no significant difference”.
